According to patent US7528175B2, “Method of treating airway diseases with beta-adrenergic inverse agonists” (Inverseon, Inc., priority 2005, dated 2009):

Columns and labels:
asthmatic mice [1] = assay: Total number of immune cells in BALF (Example 12); type: in vivo; conditions: did not reach statistical significance
Experimental: Bronchial alveolar lavage fluid was collected from treated animals and total immune cell number was determined and the total number of eosinophils was also determined. Additionally, the interleukin 10 (IL-10) levels were determined in the mice.

asthmatic mice [2] = assay: BALF cell number and type (Example 11); type: in vivo; conditions: vs nontreated asthmatic mice
Text: The same mice as described in Example 1 underwent bronchoalveolar lavage (BAL) to determine the total number and type of immune system cells in the lung. BAL Fluid (BALF) was irrigated and collected from the lungs of mice as previously described (Evans K L, Bond R A, Corry […]. Frequency dependence of respiratory system mechanics during induced constriction in a murine model of asthma. J Appl Physiol. 2003 January;94(1):245-52). […] The number of neutrophils was increased in nontreated asthmatic mice compared to mice that served as controls for chronic beta-blocker treatments. In comparison to their notable effects on airway responsiveness, the β-AR ligands tested had very little effect on BALF cellularity. […] FIG. 12 has 3 panels of cell number and type of cells from the bronchoalveolar lavage fluid of asthmatic mice treated acutely or chronically with beta adrenergic ligands. Cells were identified as eosinophils (black bars), macrophages (hatched bars), neutrophils (grey bars), and lymphocytes (white bars) by standard morphologic criteria. At least 200 cells were counted per cytospin preparation, and the absolute number of each cell type was calculated based on the volume of fluid recovered from the lavage. […] Data are expressed as mean ±SEM and are representative of 6-25 animals per group. #P<0.05 compared to NTX, *P<0.05 compared to control (ANOVA).

Compound: CC(C)(C)NCC(O)COc1cccc2c1CC(O)C(O)C2 (stereo not shown) [nadolol]
- lower number of cells in BALF compared to non-drug-treated (S/C) mice (asthmatic mice [1]; acute treatment): approximately 25%
- lower number of cells in BALF compared to non-drug-treated (S/C) mice (asthmatic mice [1]; chronic treatment): approximately 25%
- BALF cellularity (asthmatic mice [2]; acute treatment (15 minutes)): significant elevations in the number of neutrophils
- BALF cellularity (asthmatic mice [2]; chronic treatment (28 days)): significant elevations in the number of neutrophils
